Experimental findings from patent US9796711B2, “Substituted pyrazolo[3,4-b]pyridin-6-carboxylic acids and method of use” (AbbVie S.àr.l., priority 2015, dated 2017) are described below.

In experiment [1] the target is T1, ΔF508-CFTR (Homo sapiens, UniProt P13569, DEL508-508).
T1 construct: host or cells: CFBE41o-, doxycycline-inducible
As to the kind of experiment: CFTR cell surface levels using HRP-tagged ΔF508-CFTR expressing CFBE cells, in the presence of a co-corrector. The format is cell-based. The note with it: HRP-tagged ΔF508-CFTR expressing CFBE cells, in the presence of 3 μM co-corrector; for EC50: read-out: EC50. In short, it runs like this:
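Cells were seeded with 0.5 μg/mL doxycycline and held 68 h at 37 °C. Test compounds plus 3 μM co-corrector (final 0.1% DMSO) were then added for 20 h at 33 °C. Washed cells received HRP substrate, and luminescence was normalized between DMSO and 3 μM co-corrector controls.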

The target of experiment [2] is T1, ΔF508-CFTR. As to the kind of experiment: CFTR cell surface levels using HRP-tagged ΔF508-CFTR expressing CFBE cells, intrinsic corrector capacity. It counts as cell-based. The following applies: for EC50: read-out: EC50. The method in brief:
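Here the cells express ΔF508-CFTR with horseradish peroxidase inserted in extracellular loop 4, so only rescued channel at the surface gives luminescent signal. Compounds act on their own, 20 h at the reduced temperature of 33 °C; values are percent activity relative to DMSO and a 3 μM corrector.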

Setting [3] is: HRP-tagged ΔF508-CFTR CFBE41o- cells, compounds alone (intrinsic corrector capacity), 20 hours at 33° C., positive control 3 μM corrector.
[4] abbreviates: HRP-tagged ΔF508-CFTR CFBE41o- cells, compounds alone (intrinsic corrector capacity), 20 hours at 33° C.
Where [5] appears, read: HRP-tagged ΔF508-CFTR expressing CFBE cells, intrinsic corrector capacity (no co-corrector), 33° C., 20 hours.

Some results are limits rather than exact numbers.

T1 sequence (P13569 with tags, fused parts or gaps DEL508-508): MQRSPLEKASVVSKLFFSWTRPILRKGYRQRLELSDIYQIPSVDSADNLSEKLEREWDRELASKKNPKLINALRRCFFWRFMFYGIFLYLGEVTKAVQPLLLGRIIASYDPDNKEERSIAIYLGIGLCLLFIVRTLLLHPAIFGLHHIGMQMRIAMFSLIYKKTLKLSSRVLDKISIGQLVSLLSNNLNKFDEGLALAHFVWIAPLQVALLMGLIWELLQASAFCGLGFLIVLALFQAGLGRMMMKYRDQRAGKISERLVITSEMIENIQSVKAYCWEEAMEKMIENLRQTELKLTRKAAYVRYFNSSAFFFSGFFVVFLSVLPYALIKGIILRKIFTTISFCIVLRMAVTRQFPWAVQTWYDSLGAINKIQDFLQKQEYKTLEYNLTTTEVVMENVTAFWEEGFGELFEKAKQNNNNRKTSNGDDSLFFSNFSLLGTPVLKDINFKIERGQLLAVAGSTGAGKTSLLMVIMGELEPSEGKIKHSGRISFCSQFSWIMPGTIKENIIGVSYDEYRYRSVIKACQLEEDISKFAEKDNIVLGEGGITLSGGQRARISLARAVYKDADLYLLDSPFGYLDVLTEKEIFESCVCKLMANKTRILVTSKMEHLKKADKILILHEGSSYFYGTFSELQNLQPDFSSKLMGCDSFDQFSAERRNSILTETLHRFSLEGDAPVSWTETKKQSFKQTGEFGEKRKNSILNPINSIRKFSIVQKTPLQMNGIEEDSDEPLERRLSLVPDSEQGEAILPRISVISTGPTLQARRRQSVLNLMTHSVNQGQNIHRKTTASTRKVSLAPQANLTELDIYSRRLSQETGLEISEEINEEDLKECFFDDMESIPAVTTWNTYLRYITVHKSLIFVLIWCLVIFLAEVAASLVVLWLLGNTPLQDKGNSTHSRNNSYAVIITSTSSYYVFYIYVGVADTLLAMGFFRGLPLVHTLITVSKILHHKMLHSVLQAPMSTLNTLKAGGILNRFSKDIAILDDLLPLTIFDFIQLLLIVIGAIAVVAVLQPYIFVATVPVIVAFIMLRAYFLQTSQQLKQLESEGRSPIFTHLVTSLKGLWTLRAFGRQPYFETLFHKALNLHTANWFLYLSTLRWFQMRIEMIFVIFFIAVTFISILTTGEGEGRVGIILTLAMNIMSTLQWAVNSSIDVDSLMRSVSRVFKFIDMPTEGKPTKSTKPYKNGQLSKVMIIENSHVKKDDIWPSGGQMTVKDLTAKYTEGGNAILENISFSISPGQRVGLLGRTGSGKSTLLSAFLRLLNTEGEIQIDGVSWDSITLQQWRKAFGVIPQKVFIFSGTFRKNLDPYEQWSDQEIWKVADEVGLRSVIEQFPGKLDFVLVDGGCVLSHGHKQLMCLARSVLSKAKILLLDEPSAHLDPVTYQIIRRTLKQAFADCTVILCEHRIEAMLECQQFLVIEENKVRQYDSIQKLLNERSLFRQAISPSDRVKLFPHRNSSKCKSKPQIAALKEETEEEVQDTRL

Regarding `CC(C)c1nn(C2CCN(CC#N)CC2)c2nc(C(=O)O)cc(-c3ccc(N4CCOCC4)cc3)c12` [compound 95, 1-[1-(cyanomethyl)piperidin-4-yl]-4-[4-(morpholin-4-yl)phenyl]-3-(propan-2-yl)-1H-pyrazolo[3,4-b]pyridine-6-carboxylic acid], the “% Activation” value on ΔF508-CFTR [1] is recorded as 145.4%; at ΔF508-CFTR [2] (setting [3]), 16.66%. Also, the EC50 on ΔF508-CFTR [1] was 3340 nM; on ΔF508-CFTR [2] (setting [4]), > 10000 nM.
For `Cc1nn(-c2ccccc2)c2nc(C(=O)O)cc(OC3CCN(C)CC3)c12` [compound 339, 3-methyl-4-[(1-methylpiperidin-4-yl)oxy]-1-phenyl-1H-pyrazolo[3,4-b]pyridine-6-carboxylic acid] the same measures were 126.85%, 15.162%, 7500 nM and 7500 nM.
Turning to `CC(C)OC1CCN(c2cc(C(=O)O)nc3c2c(C2CCC2)nn3-c2ccccc2)CC1` [compound 372, 3-cyclobutyl-1-phenyl-4-{4-[(propan-2-yl)oxy]piperidin-1-yl}-1H-pyrazolo[3,4-b]pyridine-6-carboxylic acid], the “% Activation” value was 388.6% on ΔF508-CFTR [1] and 179% at ΔF508-CFTR [2] (setting [3]). Moreover, the EC50 on ΔF508-CFTR [1] came to 126 nM; on ΔF508-CFTR [2] (setting [4]), 262 nM.
On to `CC(C)c1nn(-c2ccc(F)cc2)c2nc(C(=O)O)cc(N3CCC(C)(N4CCCCC4)CC3)c12` [compound 784, 1-(4-fluorophenyl)-4-(4′-methyl [1,4′-bipiperidin]-1′-yl)-3-(propan-2-yl)-1H-pyrazolo[3,4-b]pyridine-6-carboxylic acid], for which, on ΔF508-CFTR [1], the “% Activation” value was found to be 225.6% and the EC50 amounted to 1670 nM. Also, on ΔF508-CFTR [2] (setting [5]), the “% Activation” value is given as 38.94% and the EC50 worked out at 1220 nM.
For the compound `CC(C)c1nn(-c2cccc(N3CCOCC3)c2)c2nc(C(=O)O)cc(-c3ccc(N4CCOCC4)cc3)c12` [compound 121, 1-[3-(morpholin-4-yl)phenyl]-4-[4-(morpholin-4-yl)phenyl]-3-(propan-2-yl)-1H-pyrazolo[3,4-b]pyridine-6-carboxylic acid], the “% Activation” value on ΔF508-CFTR [1] came to 603.1%; at ΔF508-CFTR [2] (setting [3]) it was 401.5%. Also, the results for the 50% effective concentration (EC50) on ΔF508-CFTR [1] and on ΔF508-CFTR [2] (setting [4]) were 758 nM and 528 nM, respectively.
The matching figures for `Cc1nn(-c2ccccc2)c2nc(C(=O)O)cc(-c3ccc(N4CC(C)OC(C)C4)cc3)c12` (centres unmarked) [compound 114, 4-[4-(2,6-dimethylmorpholin-4-yl)phenyl]-3-methyl-1-phenyl-1H-pyrazolo[3,4-b]pyridine-6-carboxylic acid]: 460.85%, 251.05%, 1240 nM and 806 nM.
For `CC(C)c1nn(-c2cccc(N3CCC3)c2)c2nc(C(=O)O)cc(-c3ccc(N(C)C4CCOCC4)cc3)c12` [compound 240, 1-[3-(azetidin-1-yl)phenyl]-4-{4-[methyl(oxan-4-yl)amino]phenyl}-3-(propan-2-yl)-1H-pyrazolo[3,4-b]pyridine-6-carboxylic acid] the same measures were 609.05%, 380.6%, 516 nM and 588 nM.
`O=C(O)c1cc(N2CCC3(CC2)CC(N2CCCC2)CO3)c2c(C3CCC3)nn(-c3ccc(F)cc3)c2n1` (centres unmarked) [compound 862, 3-cyclobutyl-1-(4-fluorophenyl)-4-[3-(pyrrolidin-1-yl)-1-oxa-8-azaspiro[4.5]decan-8-yl]-1H-pyrazolo[3,4-b]pyridine-6-carboxylic acid]: the figures for the “% Activation” value on ΔF508-CFTR [1] and on ΔF508-CFTR [2] (setting [5]) were 359.6% and 186.5%, respectively. In addition, the results for the EC50 at ΔF508-CFTR [1] and on ΔF508-CFTR [2] (setting [5]) were 636 nM and 637 nM, respectively.
For the compound `CC(C)c1nn(-c2cccc(N3CCC(F)C3)c2)c2nc(C(=O)O)cc(-c3ccc(N4CCOCC4)cc3)c12` (centres unmarked) [compound 165, 1-[3-(3-fluoropyrrolidin-1-yl)phenyl]-4-[4-(morpholin-4-yl)phenyl]-3-(propan-2-yl)-1H-pyrazolo[3,4-b]pyridine-6-carboxylic acid], the figures for the “% Activation” value at ΔF508-CFTR [1] and at ΔF508-CFTR [2] (setting [3]) were 533.35% and 350.4%, respectively. For the same compound, the results for the EC50 at ΔF508-CFTR [1] and on ΔF508-CFTR [2] (setting [4]) were 515 nM and 794 nM, respectively.
The matching figures for `CC(C)c1nn(-c2cccc(N(C)C)c2)c2nc(C(=O)O)cc(-c3cnc(N(C)C4CCOCC4)nc3)c12` [compound 200, 1-[3-(dimethylamino)phenyl]-4-{2-[methyl(oxan-4-yl)amino]pyrimidin-5-yl}-3-(propan-2-yl)-1H-pyrazolo[3,4-b]pyridine-6-carboxylic acid]: 594.2%, 330.83%, 514 nM and 438 nM.
The matching figures for `CC(C)c1nn(C2CCCCC2)c2nc(C(=O)O)cc(N3CCC(CO)CC3)c12` [compound 266, 1-cyclohexyl-4-[4-(hydroxymethyl)piperidin-1-yl]-3-(propan-2-yl)-1H-pyrazolo[3,4-b]pyridine-6-carboxylic acid]: 405.3%, 197.55%, 1050 nM and 1250 nM.
As for `CCCOCCN1CCN(c2cc(C(=O)O)nc3c2c(C2CCC2)nn3-c2ccccc2)CC1` [compound 555, 3-cyclobutyl-1-phenyl-4-[4-(2-propoxyethyl)piperazin-1-yl]-1H-pyrazolo[3,4-b]pyridine-6-carboxylic acid], at ΔF508-CFTR [1], the “% Activation” value came to 310.65% and the EC50 stood at 169 nM. On ΔF508-CFTR [2] (setting [5]), the “% Activation” value turned out to be 152% and the EC50 is 331 nM.
The matching figures for `CC(C)c1nn(-c2ccc(F)cc2)c2nc(C(=O)O)cc(N3CCC(C4CCN(C)CC4)CC3)c12` [compound 661, 1-(4-fluorophenyl)-4-(1′-methyl [4,4′-bipiperidin]-1-yl)-3-(propan-2-yl)-1H-pyrazolo[3,4-b]pyridine-6-carboxylic acid]: 522.3%, 227 nM, 315% and 565 nM.
The matching figures for `COCC1(F)CCN(c2cc(C(=O)O)nc3c2c(C2CCC2)nn3-c2ccccc2)CC1` [compound 463, 3-cyclobutyl-4-[4-fluoro-4-(methoxymethyl)piperidin-1-yl]-1-phenyl-1H-pyrazolo[3,4-b]pyridine-6-carboxylic acid]: 341.85%, 373 nM, 157.75% and 686 nM.
As for `Cc1nn(-c2ccccc2)c2nc(C(=O)O)cc(N3CCN4C(=O)OCC4C3)c12` (centres unmarked) [compound 301, 3-methyl-4-(3-oxotetrahydro-3H-[1,3]oxazolo[3,4-a]pyrazin-7(1H)-yl)-1-phenyl-1H-pyrazolo[3,4-b]pyridine-6-carboxylic acid], the results for the “% Activation” value on ΔF508-CFTR [1] and on ΔF508-CFTR [2] (setting [3]) were 117.35% and 12.64%, respectively. The EC50 at ΔF508-CFTR [1] and on ΔF508-CFTR [2] (setting [4]) was 7500 nM each time.
Take `CO[C@H]1CCN(c2cc(C(=O)O)nc3c2c(C)nn3-c2ccccc2)C1` [compound 296, 4-[(3S)-3-methoxypyrrolidin-1-yl]-3-methyl-1-phenyl-1H-pyrazolo[3,4-b]pyridine-6-carboxylic acid]: the “% Activation” value amounted to 164% at ΔF508-CFTR [1] and 29.42% on ΔF508-CFTR [2] (setting [3]). For the same compound, the EC50 is 2510 nM on ΔF508-CFTR [1] and 4170 nM at ΔF508-CFTR [2] (setting [4]).
For `CO[C@@H]1CCN(c2cc(C(=O)O)nc3c2c(C)nn3-c2ccccc2)C1` [compound 295, 4-[(3R)-3-methoxypyrrolidin-1-yl]-3-methyl-1-phenyl-1H-pyrazolo[3,4-b]pyridine-6-carboxylic acid] the same measures were 172.1%, 46.475%, 2510 nM and 2510 nM.
Take `Cc1nn(-c2ccccc2)c2nc(C(=O)O)cc(OCCN3CCCC3)c12` [compound 342, 3-methyl-1-phenyl-4-[2-(pyrrolidin-1-yl)ethoxy]-1H-pyrazolo[3,4-b]pyridine-6-carboxylic acid]: the “% Activation” value at ΔF508-CFTR [1] was found to be 138.5%; at ΔF508-CFTR [2] (setting [3]), 19.4%. Further, the figures for the EC50 on ΔF508-CFTR [1] and on ΔF508-CFTR [2] (setting [4]) were 3370 nM and 7500 nM, respectively.
`CC(C)c1nn(-c2cccc(N(C)C)c2)c2nc(C(=O)O)cc(-c3ccc(N(C)C4CCOCC4)cc3)c12` [compound 207, 1-[3-(dimethylamino)phenyl]-4-{4-[methyl(oxan-4-yl)amino]phenyl}-3-(propan-2-yl)-1H-pyrazolo[3,4-b]pyridine-6-carboxylic acid]: the “% Activation” value on ΔF508-CFTR [1] was found to be 674.35%; at ΔF508-CFTR [2] (setting [3]) it was 384.15%. The EC50 stood at 380 nM on ΔF508-CFTR [1] and 581 nM at ΔF508-CFTR [2] (setting [4]).
The matching figures for `Cc1nn(-c2ccccc2)c2nc(C(=O)O)cc(C3=CCOCC3)c12` [compound 128, 4-(3,6-dihydro-2H-pyran-4-yl)-3-methyl-1-phenyl-1H-pyrazolo[3,4-b]pyridine-6-carboxylic acid]: 175.85%, 33.92%, 3340 nM and 3340 nM.

Usually EC50 stands for the concentration that produces a half-maximal response.
